Laboratory results reported in the Deep4Chem optical property database.

Experiment: solvent given as SMILES

`CC(C)(C)NC(=O)c1ccc2ccc3cccc4c3c2c1c1c2ccccc2c2ccccc2c41` showed an emission maximum (in ClCCl) of 425 nm.

`O=c1oc2ccc3cccc4c(O)c(Cl)c(c1Cl)c2c34` gave an emission maximum (in CC1CCCO1) of 500 nm.

For `CCOC(=O)COc1ccc(/C=C/C2=C3c4ccccc4C(c4[nH]c(C)cc4C)=[N+]3[B-](F)(F)n3c(/C=C/c4ccc(OCC(=O)OCC)cc4)cc(C)c32)cc1`, the emission maximum (in C1CCOC1) was 730 nm, the emission maximum (in CC#N) was 727 nm and the emission maximum (in CCCCCC) was 731 nm. For the same compound, the emission maximum (in CO) was 726 nm, the emission maximum (in Cc1ccccc1) was 735 nm and the emission maximum (in ClCCl) was 733 nm.

Compound `CCC(C)[Si](C#Cc1c2nc3c4ccccc4c(=O)c4ccccc4c3nc2c(C#C[Si](C(C)CC)(C(C)CC)C(C)CC)c2nc3c4ccccc4c(=O)c4ccccc4c3nc12)(C(C)CC)C(C)CC` (stereo not drawn) has an emission maximum (in ClCCl) of 571 nm.

For `CN1c2ccccc2CCc2ccccc21`, the emission maximum (in CC#N) was 346 nm and the emission maximum (in CO) was 348 nm.

Compound `O=C1NC(c2ccccc2)=C/C1=C\c1ccccc1` has an emission maximum (in C1COCCO1) of 539 nm.

With `CC[n+]1c(-c2ccccc2)c2cc(NC(N)=O)ccc2c2ccc(N)cc21` the emission maximum (in O) was 601 nm.

With `COc1cc2c(cc1-c1ccc(Cl)cc1)Cc1c3c(c4c(c1-2)-c1cc(OC)c(-c2ccc(Cl)cc2)cc1C4)C(=O)N(CCC(C)C)C3=O` the emission maximum (in C1CCOC1) was 466 nm.

Compound `CC1=CC(C)=[N+]2C1=C(c1ccc(N3CCCCC3)cc1)c1c(C)cc(C)n1[B-]2(F)F` has an emission maximum (in C1CCOC1) of 515 nm, an emission maximum (in CC#N) of 511 nm and an emission maximum (in CC(=O)C(C)(C)C) of 516 nm. For the same compound, the emission maximum (in CC(C)=O) was 515 nm, the emission maximum (in CCCCCC) was 511 nm and the emission maximum (in CCOC(C)=O) was 515 nm. It also gave an emission maximum (in CO) of 514 nm.

Compound `COC(=O)c1c(-c2cc3ccccc3oc2=O)nn(-c2ccc(Br)cc2)c1C(=O)OC` has an emission maximum (in ClCCl) of 401 nm.

Work on `CCC1(CC)c2cc(-c3ccc(-c4ccc5c(c4)C(CC)(CC)c4cc(C(C)(C)C)ccc4-5)cc3)ccc2-c2ccc(C(C)(C)C)cc21` yielded an emission maximum (in CO) of 383.9 nm.

`F[B-]1(F)n2c(ccc2-c2ccccc2)C(c2ccc(I)cc2)=C2C=CC(c3ccccc3)=[N+]21` showed an emission maximum (in ClC(Cl)Cl) of 588 nm.

Compound `N#Cc1c(N2CCCCC2)cc(-c2ccc(Br)s2)c2c1CCc1ccccc1-2` has an emission maximum (in C1CCOC1) of 493 nm.

Compound `CCC[n+]1ccc(/C=C/c2ccc(N(C)C)cc2)cc1` has an emission maximum (in C1COCCO1) of 557 nm, an emission maximum (in CC(C)O) of 571 nm and an emission maximum (in CCCCO) of 576 nm. It also gave an emission maximum (in CCCO) of 576 nm, an emission maximum (in CCO) of 576 nm and an emission maximum (in CO) of 579 nm. For the same compound, the emission maximum (in CS(C)=O) was 589 nm, the emission maximum (in ClC(Cl)Cl) was 560 nm and the emission maximum (in ClCCl) was 560 nm. It also gave an emission maximum (in c1ccccc1) of 552 nm.

`COc1ccc(C2=C(c3ccc(OC)cc3)C(C)(C)c3cc(-c4ccccc4)ccc32)cc1` showed an emission maximum (in C1CCCCC1) of 417 nm.

In the case of `CCC1=C(C)C2=Cc3c(I)c(I)cn3[B-](F)(F)[N+]2=C1C`, the emission maximum (in C1CCCCC1) was 537 nm, the emission maximum (in CC(C)=O) was 544 nm and the emission maximum (in CCO) was 541.5 nm. For the same compound, the emission maximum (in CCOC(C)=O) was 539.5 nm, the emission maximum (in CO) was 541.5 nm and the emission maximum (in OCC(F)(F)F) was 538 nm.

For `CCCCCCCCCCCCN1C(=O)c2c(c3ccc4cc(-c5ccccc5)c(OC)cc4c3c3c2ccc2cc(-c4ccccc4)c(OC)cc23)C1=O`, the emission maximum (in ClCCl) was 526 nm.

`C1=C(c2ccccc2)C(c2ccccc2)C(c2ccccc2)=C1` gave an emission maximum (in C1CCOC1) of 385 nm.

For `Cn1c2ccccc2c(=O)c2ccccc21`, the emission maximum (in CS(C)=O) was 417 nm and the emission maximum (in O) was 430 nm.

With `COc1c(Br)c2cc(=O)oc3ccc4cccc1c4c32` the emission maximum (in CC1CCCO1) was 487 nm.

`CCCCCCCCN1c2ccc(C#Cc3ccc(F)cc3)cc2Sc2cc(C=O)ccc21` showed an emission maximum (in C1CCOC1) of 513 nm, an emission maximum (in CC#N) of 538 nm and an emission maximum (in CCCCCC) of 488 nm. For the same compound, the emission maximum (in CO) was 466 nm, the emission maximum (in CS(C)=O) was 542 nm and the emission maximum (in Cc1ccccc1) was 507 nm. For the same compound, the emission maximum (in ClC(Cl)Cl) was 539 nm.

In the case of `CCOC(=O)c1cc(C(=O)NCc2ccccc2)c2ccc(N(C)C)cc2n1`, the emission maximum (in CCO) was 586 nm.

Compound `Nc1c(-c2nn([C@H]3C[C@H](O)[C@@H](CO)O3)c3ncnc(N)c23)ccc2ccccc12` has an emission maximum (in C1COCCO1) of 428 nm, an emission maximum (in CC#N) of 458 nm and an emission maximum (in CC(C)O) of 480 nm. The emission maximum (in CCO) was 489 nm, the emission maximum (in CCOC(C)=O) was 433 nm and the emission maximum (in CN(C)C=O) was 452 nm. For the same compound, the emission maximum (in CO) was 498 nm, the emission maximum (in CS(C)=O) was 450 nm and the emission maximum (in OCC(O)CO) was 404 nm. For the same compound, the emission maximum (in OCCO) was 493 nm.

For `COc1cc(N(c2ccc(C=C(C#N)C#N)c(OC)c2)c2ccc(C=C(C#N)C#N)c(OC)c2)ccc1C=C(C#N)C#N`, the emission maximum (in C1COCCO1) was 521 nm, the emission maximum (in CC#N) was 566 nm and the emission maximum (in CC(C)=O) was 557 nm. For the same compound, the emission maximum (in CCOC(C)=O) was 532 nm, the emission maximum (in CN(C)C=O) was 575 nm and the emission maximum (in CO) was 551 nm. For the same compound, the emission maximum (in Cc1ccccc1) was 500 nm, the emission maximum (in ClC(Cl)Cl) was 514 nm and the emission maximum (in ClCCl) was 531 nm.

For `CC1=C2C=CC(C)=[N+]2[B-](F)(F)n2cccc21`, the emission maximum (in CCCCCC) was 504 nm, the emission maximum (in CO) was 502 nm and the emission maximum (in ClCCl) was 506 nm.

`CN(C)c1ccc(-c2c(/C=C3/C=Cc4ccccc4N3C)c(=O)c2=O)cc1` gave an emission maximum (in C1CCCCC1) of 427 nm, an emission maximum (in Cc1ccccc1) of 435 nm and an emission maximum (in ClCCl) of 588 nm.

For `COc1ccc(-n2nc(C#N)c(N3CCC(N4CCCCC4)CC3)n2)cc1`, the emission maximum (in CC#N) was 403 nm.

With `c1ccc(-c2nc3c(c4c2-c2ccccc2CC4)-c2ccccc2CC3)cc1` the emission maximum (in C1CCOC1) was 362 nm, the emission maximum (in CC#N) was 360 nm and the emission maximum (in CCCCCC) was 363 nm. The emission maximum (in CCOC(C)=O) was 359 nm, the emission maximum (in CO) was 362 nm and the emission maximum (in CS(C)=O) was 360 nm. The emission maximum (in Cc1ccccc1) was 361 nm and the emission maximum (in ClCCl) was 361 nm.

Work on `Cc1ccc2c(c1)C1(c3ccccc3Oc3ccccc31)c1cc(C)ccc1N2c1ccc(-c2ncccn2)cc1` yielded an emission maximum (in Cc1ccccc1) of 454 nm and an emission maximum (in O=P(c1ccccc1)(c1ccccc1)c1ccc2oc3ccc(P(=O)(c4ccccc4)c4ccccc4)cc3c2c1) of 458 nm.

Compound `CN(C)c1ccc(-c2cc[n+](C)cc2)s1` has an emission maximum (in CCO) of 507 nm.

`CCCCCCCCCCCCC(CCCCCCCCCC)Cn1c2cc(/C=C/C=C/c3nc4ccccc4s3)c3cccc4c5cccc6c(/C=C/C=C/c7nc8ccccc8s7)cc1c(c65)c2c34` (stereo not drawn) gave an emission maximum (in C1CCCCC1) of 588 nm, an emission maximum (in CC#N) of 608 nm and an emission maximum (in Cc1ccccc1) of 604 nm. The emission maximum (in ClCCl) was 612 nm.

In the case of `Cc1cc(N(C)C)cc(C)c1/C=C/C=C/c1ccc(C#N)cc1`, the emission maximum (in CC#N) was 599 nm, the emission maximum (in CCCCCC) was 442 nm and the emission maximum (in CCOCC) was 527 nm.

For `CC1(C)CC(NCc2ccc3ccc4cccc5ccc2c3c45)CC(C)(C)N1`, the emission maximum (in C1CCCCC1) was 375 nm, the emission maximum (in CC#N) was 375 nm and the emission maximum (in CO) was 375 nm. For the same compound, the emission maximum (in ClC(Cl)Cl) was 396 nm.

In the case of `CCOC(=O)/N=c1/oc2cc(OC)ccc2cc1C#N`, the emission maximum (in ClCCl) was 434 nm.

`Oc1ccc(-c2nc(-c3ccccc3)c(-c3ccccc3)[nH]2)cc1` gave an emission maximum (in CO) of 400 nm.

In the case of `c1ccc(N(c2ccccc2)c2ccc(-c3ccncn3)cc2)cc1`, the emission maximum (in ClCCl) was 482 nm.

Work on `COc1ccc(-c2c(-c3ccc(C)cc3)c3n(c2-c2ccc(C)cc2)[B-](F)(F)[N+]2=C(c4ccc(C)cc4)C(/C=C/C(=O)OC4CC[C@@]5(C)C(=CC[C@H]6[C@@H]7CC[C@H]([C@H](C)CCCC(C)C)[C@@]7(C)CC[C@@H]65)C4)=C(c4ccc(C)cc4)C2=N3)cc1` (stereo partly drawn) yielded an emission maximum (in ClC(Cl)Cl) of 702 nm.

Work on `COC(=O)c1ccc(/C=C2\C=C(c3ccc([N+](=O)[O-])cc3)OC2=O)cc1` yielded an emission maximum (in C1COCCO1) of 493 nm.

`CC(C)[Si](C#Cc1c2cc3ccccc3cc2c(C#C[Si](C)(C)C)c2cc3ccccc3cc12)(C(C)C)C(C)C` gave an emission maximum (in ClCCl) of 649 nm.

In the case of `CCN(CC)c1ccc2c(-c3ccc(S(=O)(=O)O)cc3S(=O)(=O)[O-])c3ccc(=[N+](CC)CC)cc-3oc2c1`, the emission maximum (in CC#N) was 575 nm, the emission maximum (in CCO) was 581 nm and the emission maximum (in CN(C)C=O) was 576 nm. The emission maximum (in O) was 591 nm.

Work on `Cc1ccc(N(c2ccccc2)c2ccc3ccc4c(N(c5ccccc5)c5ccc(C)cc5)ccc5ccc2c3c54)cc1` yielded an emission maximum (in ClCCl) of 484 nm.

For `COc1ccc(/C=C(\c2ccccc2)c2nc3ccccc3s2)cc1`, the emission maximum (in C1CCCCC1) was 400 nm and the emission maximum (in CO) was 420 nm.

Work on `CCCCN1C(=O)c2cc(Oc3ccc(C(C)(C)C)cc3)c3c4c(Oc5ccc(C(C)(C)C)cc5)c(Oc5ccc(C(C)(C)C)cc5)c5c6c(cc(Oc7ccc(C(C)(C)C)cc7)c(c7c(Oc8ccc(C(C)(C)C)cc8)c(Oc8ccc(C(C)(C)C)cc8)c(c2c37)C1=O)c64)C(=O)N(CCCC)C5=O` yielded an emission maximum (in ClC(Cl)Cl) of 610 nm.

With `CCCCCCCCN1c2ccc(C#Cc3ccc(C(F)(F)F)cc3)cc2Sc2cc(C=O)ccc21` the emission maximum (in C1CCOC1) was 512 nm, the emission maximum (in CC#N) was 534 nm and the emission maximum (in CCCCCC) was 490 nm. It also gave an emission maximum (in CO) of 500 nm, an emission maximum (in CS(C)=O) of 539 nm and an emission maximum (in Cc1ccccc1) of 509 nm. It also gave an emission maximum (in ClC(Cl)Cl) of 535 nm.

For `C[C@@]12SC(Cl)=CC1=c1nc(-c3ccc(Cl)cc3)[nH]c1=C1C=C(Cl)S[C@]12C`, the emission maximum (in CC#N) was 449 nm.

For `N#Cc1ccc(-c2nc(-c3ccccc3)c3ccccn23)cc1`, the emission maximum (in C1CCCCC1) was 444 nm, the emission maximum (in CC#N) was 453 nm and the emission maximum (in CO) was 487 nm. For the same compound, the emission maximum (in ClCCl) was 477 nm and the emission maximum (in O) was 470 nm.

`Cc1cc(C)c(B(c2c(C)cc(C)cc2C)c2c(C)cc(-n3c4ccc(N(c5ccccc5)c5ccccc5)cc4c4cc(N(c5ccccc5)c5ccccc5)ccc43)cc2C)c(C)c1` showed an emission maximum (in Cc1ccccc1) of 495 nm and an emission maximum (in O=P(c1ccccc1)(c1ccccc1)c1ccccc1Oc1ccccc1P(=O)(c1ccccc1)c1ccccc1) of 487 nm.

For `c1ccc(-c2nnc(-c3ccc(N4c5ccccc5N(c5ccccc5)c5ccccc54)cc3)n2-c2ccccc2)cc1`, the emission maximum (in Cc1ccccc1) was 528 nm and the emission maximum (in c1cc(-n2c3ccccc3c3ccccc32)cc(-n2c3ccccc3c3ccccc32)c1) was 520 nm.

`CCCCCCOc1cc(N(CC)CC)ccc1/C=C/C(=C(C#N)C#N)c1ccc(N(c2ccccc2)c2ccccc2)cc1` showed an emission maximum (in ClCCl) of 595 nm.

In the case of `CC(C)[Si]1(C(C)C)c2cc(C=O)ccc2-c2ccc(N(C)C)cc21`, the emission maximum (in C1CCCCC1) was 414 nm, the emission maximum (in CC#N) was 528 nm and the emission maximum (in CCO) was 565 nm. It also gave an emission maximum (in CCOCC) of 449 nm, an emission maximum (in CS(C)=O) of 541 nm and an emission maximum (in ClCCl) of 501 nm. The emission maximum (in c1ccccc1) was 450 nm.

Work on `CC(C)c1cccc(C(C)C)c1N1C(=O)c2cccc3c(Oc4ccc(C(C)(C)C)cc4)ccc(c23)C1=O` yielded an emission maximum (in ClCCl) of 434 nm.
